Source: ChEMBL document CHEMBL1201862, “PubChem BioAssay data set” (2004)
Calls of active or inactive are those of the source. Rule as the data show it, for most assays here: actives have a measured IC50 and inactives only a lower limit.

Tests used:
Format in all cases: functional
[1] = target: T1, Sentrin-specific protease 7 (Homo sapiens, UniProt Q9BQF6);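 also: Luminescence-based dose-response confirmation of ultra-high-throughput screening hits, measuring inhibition of SENP7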
T1 sequence (Q9BQF6 whole entry): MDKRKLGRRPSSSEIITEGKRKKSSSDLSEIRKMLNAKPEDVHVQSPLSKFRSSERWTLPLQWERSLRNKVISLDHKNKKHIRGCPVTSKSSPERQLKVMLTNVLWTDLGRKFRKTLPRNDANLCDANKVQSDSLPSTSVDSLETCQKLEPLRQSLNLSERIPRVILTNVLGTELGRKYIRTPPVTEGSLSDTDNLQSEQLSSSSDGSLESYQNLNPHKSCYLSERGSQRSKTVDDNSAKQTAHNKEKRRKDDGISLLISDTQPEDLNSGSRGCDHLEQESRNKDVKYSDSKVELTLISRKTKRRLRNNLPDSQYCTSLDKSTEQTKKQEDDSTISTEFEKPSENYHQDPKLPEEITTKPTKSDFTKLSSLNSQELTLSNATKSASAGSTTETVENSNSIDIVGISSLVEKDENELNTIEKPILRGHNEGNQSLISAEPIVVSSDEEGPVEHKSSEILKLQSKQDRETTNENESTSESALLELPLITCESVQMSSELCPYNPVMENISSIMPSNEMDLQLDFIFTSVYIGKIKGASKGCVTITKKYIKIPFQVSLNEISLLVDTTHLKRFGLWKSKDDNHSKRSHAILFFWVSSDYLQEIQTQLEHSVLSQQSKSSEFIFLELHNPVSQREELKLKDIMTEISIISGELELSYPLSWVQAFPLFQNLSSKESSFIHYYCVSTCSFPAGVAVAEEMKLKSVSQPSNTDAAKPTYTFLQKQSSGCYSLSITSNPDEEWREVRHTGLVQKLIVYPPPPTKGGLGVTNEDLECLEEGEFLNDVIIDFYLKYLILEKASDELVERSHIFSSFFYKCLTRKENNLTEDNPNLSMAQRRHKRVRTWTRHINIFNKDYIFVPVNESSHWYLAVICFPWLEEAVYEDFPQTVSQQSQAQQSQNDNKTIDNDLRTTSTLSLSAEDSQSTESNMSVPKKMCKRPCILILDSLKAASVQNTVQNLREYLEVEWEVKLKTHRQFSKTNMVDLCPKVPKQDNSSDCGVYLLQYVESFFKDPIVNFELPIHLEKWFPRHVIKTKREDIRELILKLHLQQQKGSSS

INS1 = assay: INS-1E survival protection against cytokine death – cell-based, luminescence, retest, dose response (AID 449756); settings: Rattus norvegicus;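 also: cell death triggered by IL-1 beta plus TNF-alpha plus IFN-gamma mixture; protective hits raise ATP signal compared with cytokine alone wells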
Caspase-3 = target: T2, Caspase-3 (Homo sapiens, UniProt P42574);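 also: Dose-response selectivity test against caspase-3 for candidate inhibitors of sentrin-specific proteases (SENPs)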
T2 sequence (P42574 whole entry): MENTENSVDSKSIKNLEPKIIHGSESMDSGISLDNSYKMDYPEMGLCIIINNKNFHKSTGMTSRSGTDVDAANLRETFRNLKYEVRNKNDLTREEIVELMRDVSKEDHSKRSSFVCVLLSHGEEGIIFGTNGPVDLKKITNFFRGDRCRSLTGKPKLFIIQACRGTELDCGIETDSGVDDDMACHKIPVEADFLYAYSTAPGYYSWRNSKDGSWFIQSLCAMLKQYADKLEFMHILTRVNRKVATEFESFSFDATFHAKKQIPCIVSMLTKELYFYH

[2] = target: T3, Sentrin-specific protease 6 (Homo sapiens, UniProt Q9GZR1);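 also: Luminescence-based dose-response confirmatory assay of SENP6 inhibition, following up an ultra-high-throughput screen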
T3 sequence (Q9GZR1 whole entry): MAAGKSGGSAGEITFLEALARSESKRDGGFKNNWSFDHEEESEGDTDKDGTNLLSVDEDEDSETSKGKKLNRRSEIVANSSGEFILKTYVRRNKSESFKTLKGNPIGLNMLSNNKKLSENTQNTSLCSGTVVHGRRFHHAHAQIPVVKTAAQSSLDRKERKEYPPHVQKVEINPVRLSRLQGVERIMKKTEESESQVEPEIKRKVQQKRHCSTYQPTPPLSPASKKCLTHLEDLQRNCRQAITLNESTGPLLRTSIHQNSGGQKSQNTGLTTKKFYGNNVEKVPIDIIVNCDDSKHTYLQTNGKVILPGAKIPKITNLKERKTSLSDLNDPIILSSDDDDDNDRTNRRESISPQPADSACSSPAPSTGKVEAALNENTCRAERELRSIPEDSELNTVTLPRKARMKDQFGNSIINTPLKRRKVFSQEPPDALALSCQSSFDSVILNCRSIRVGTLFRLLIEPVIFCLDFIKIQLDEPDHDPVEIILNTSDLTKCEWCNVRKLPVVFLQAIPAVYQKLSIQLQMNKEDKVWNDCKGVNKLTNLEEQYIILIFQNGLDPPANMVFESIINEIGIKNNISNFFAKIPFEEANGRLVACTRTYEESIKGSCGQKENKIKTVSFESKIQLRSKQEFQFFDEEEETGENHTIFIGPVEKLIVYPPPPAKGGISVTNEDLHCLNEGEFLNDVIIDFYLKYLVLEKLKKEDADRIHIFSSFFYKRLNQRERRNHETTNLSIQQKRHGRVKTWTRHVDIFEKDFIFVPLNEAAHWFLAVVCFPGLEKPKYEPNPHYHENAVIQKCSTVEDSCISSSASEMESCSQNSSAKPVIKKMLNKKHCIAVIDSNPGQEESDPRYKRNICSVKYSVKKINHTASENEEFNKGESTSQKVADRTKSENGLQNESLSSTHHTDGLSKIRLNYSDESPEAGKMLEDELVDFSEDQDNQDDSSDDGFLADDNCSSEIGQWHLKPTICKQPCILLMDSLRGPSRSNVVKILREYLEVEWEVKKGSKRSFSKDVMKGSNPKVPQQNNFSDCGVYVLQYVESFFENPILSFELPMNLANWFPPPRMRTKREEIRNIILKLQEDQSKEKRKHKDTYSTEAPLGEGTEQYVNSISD

[3] = target: T4, Sentrin-specific protease 8 (Homo sapiens, UniProt Q96LD8)
T4 sequence (Q96LD8 whole entry): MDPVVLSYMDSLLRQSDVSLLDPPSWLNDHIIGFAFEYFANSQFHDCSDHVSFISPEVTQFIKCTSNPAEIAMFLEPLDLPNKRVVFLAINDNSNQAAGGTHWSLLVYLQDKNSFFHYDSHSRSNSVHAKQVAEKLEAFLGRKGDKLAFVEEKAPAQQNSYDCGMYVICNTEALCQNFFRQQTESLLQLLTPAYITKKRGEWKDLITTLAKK

[4] = target: T4, Sentrin-specific protease 8; remark: listed apart in the source

Cc1ccc(S(=O)(=O)/N=C2\C=C(Nc3cccc(C(=O)O)c3)C(=O)c3ccccc32)c(C)c1
active: IC50 [1] 3.3 µM | AC50 (INS1) 6.82 µM | IC50 (Caspase-3) 11.2 µM | IC50 [2] 0.819 µM | IC50 [3] 1.78 µM

COc1ccc(NC(=O)/C(Cl)=C(/Cl)[S+]([O-])Cc2ccccc2)cn1 (stereo unspecified)
active: AC50 (INS1) 1.1 µM

Nc1ccc(N2CCCCC2)c2nonc12
active: IC50 [1] 17.1 µM | IC50 (Caspase-3) 36.9 µM | IC50 [4] 1.06 µM | IC50 [2] 9.43 µM | IC50 [3] 10.2 µM
